What was measured:
[1] = Fe^3+ complexation, potentiometric / spectrophotometric titration; assay type: physicochemical; settings: for log β (FemHhLl), species (101) / log β (FemHhLl), species (102): pH-potentiometric (FA), UV–Vis (1a, 1d); for pM (Fe^3+), pM = −log [M]: pH 7.4, CL/CM = 10, CM = 10^−6 M
Text: The chelating ability of FA and of selected compounds 1a and 1d was studied by using the same experimental techniques (potentiometry, UV–Vis spectrophotometry) and experimental medium used for the titration of the ligand alone (20% w/w DMSO/water).
Alterations in the deprotonation profiles of the ligand titration curves due to the presence of the metal ions are evident in Figure 2, since the curves for the M/L systems appear well below that of FA for a > −1 (M = Fe) or a > 0 (M = Cu). This evidence supports the formation of metal complexes with the deprotonated (L^−) and mono-protonated (HL) forms of the ligand, whose stability order (Fe > Cu) follows the expected trend. Equilibrium models obtained from the fitting analysis of the potentiometric curves (M = Fe, Cu) and the UV–Vis spectral data (M = Fe, Cu) are reported in Table 2.
Both compounds 1a and 1d have similar chelating capacities towards iron and copper, which are also analogous to those of FA.
As concerns the metal chelation studies, potassium hydrogen phthalate (C8H5KO4, p.a.) was acquired from BDH, whereas dimethylsulfoxide (DMSO, dried, p.a.) and potassium chloride (KCl, p.a.) were supplied by Sigma-Aldrich. Aqueous solutions of metal ions were prepared starting from 1000 ppm standards (Titrisol, Sigma-Aldrich), to obtain solutions FeCl3 0.018 M and CuCl2 0.015 M. The metal content of solutions was evaluated by atomic absorption. Iron stock solution was prepared with an excess of acid chloride to avoid hydrolysis and its concentration in HCl was determined by the usual standard-addition method using 0.1M HCl (Titrisol). The 0.1M HCl solution, used in calibration of the glass electrode and in spectrophotometric titrations, was prepared from a Titrisol ampoule. The titrant was prepared from carbonate free commercial concentrate (Titrisol, KOH 0.1 M ampoules). The KOH solution was standardized by titration with a solution of potassium hydrogen phthalate using Gran’s method and it was rejected when the percentage of carbonate was greater than 0.5% of the total amount of base. The potentiometric studies were performed with an automated potentiometric apparatus controlled by PASAT program and containing a Crison micropH 2002 millivoltmeter, a Crison microBu 2031 burette and a Haake thermostatic bath (T = 25.0 ± 0.1 °C). The spectrophotometric titrations were carried out with a Perkin-Elmer Lambda 35 spectrophotometer.
Both glass and Ag/AgCl reference electrodes were previously conditioned in different DMSO/H2O mixtures of increasing DMSO % concentration and the response of the glass electrode was evaluated by strong acid–strong base (HCl/KOH) calibrations with the determination of the Nernst parameters by Gran’s method. […] The spectrophotometric measurements were carried out in a 250–450 nm wavelength range at pH ca. 2.5–11.8. Under the stated experimental conditions, the pKw value (14.27) was determined and subsequently used in the computations. The stepwise protonation constants of the ligands, Ki = [HiL]/[Hi-1L][H], and the overall metal complex stability constants, β (MmHhLl) = [MmHhLl]/[M]^m[H]^h[L]^l, were calculated by fitting the pH-potentiometric and spectrophotometric data with, respectively, the Hyperquad 2008 [41] and Psequad programs. The metal hydrolysis model was determined under the defined experimental conditions (I = 0.1 M KCl, 20% w/w DMSO/H2O, T = 25.0 ± 0.1 °C) and the following values of stability constants were included in the fitting of experimental data towards the equilibrium models related to the Fe^3+/L and Cu^2+/L systems: log β (FeH-2) = −6.78, log β (FeH-3) = −10.78; log β (Cu2H-2) = −9.94. The species distribution curves were obtained with the Hyss program.

Aβ1–42 peptide = Aβ1–42 peptide (Homo sapiens, UniProt P05067); experiment: Inhibition of self-mediated Aβ1–42 aggregation, Thioflavin T fluorescence assay; assay type: biochemical; design: Amyloid-β peptide (1–42) was purchased from GeneCust; purchased GeneCust; settings: compounds 80 μM, without copper; ThT fluorescence; mean of two independent measurements in duplicate; read-out: Inhibition of Aβ1–42 Aggregation (%) Self-Aβ Aggr.
Chain of Aβ1–42 peptide (P05067 672-713): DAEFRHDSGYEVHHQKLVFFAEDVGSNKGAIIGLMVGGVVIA
Protocol: The studied compounds (1a–e) were tested in vitro to evaluate their activity as inhibitors of Aβ1-42 peptide aggregation, through the Thioflavin T (ThT) fluorescence assay. This method is based on the strong ability of the dye ThT to bind β-amyloid fibrils and oligomers through ionic and hydrophobic interactions, while its interaction with β-amyloid monomers is extremely weak. The intercalation of compounds in the β-sheet structure of amyloid protein may prevent fibrils aggregation and ThT binding, and it is evaluated by fluorimetry. The fluorescence emission measurements were performed after overnight incubation of the self-mediated or Cu^2+-induced Aβ fibril aggregates with the studied compounds.
The inhibition of β-amyloid (Aβ) aggregation was studied through the Th-T fluorescence assay, which was performed using a Varian Cary Eclipse fluorimeter at the following wavelengths: excitation (446 nm) and emission (485 nm). Amyloid-β peptide (1–42) was purchased from GeneCust as lyophilized powder stored at −20 °C.
The method used is based on thioflavin T (ThT) fluorescence emission, which depends on the interaction of this dye with Aβ fibrils. The assay is performed with the Aβ1–42 peptide sample, which was previously prepared by solubilization of its lyophilized powder in 1,1,1,3,3,3–hexafluoro-2-propanol (HFIP), an organic solvent useful to solubilize and monomerize the β-sheets protein aggregates. After 24 h, the solution was divided into Eppendorf tubes kept in ice, and then, HFIP was left to evaporate overnight (T = 25 °C). The resultant films were stored in the freezer. […] Compounds were dissolved in MeOH (1 mg/mL) and diluted with phosphate buffer to reach a ligand stock solution of 480 μM. Two different types of experiments were prepared in a final volume of 60 μL: control ligand assays (Aβ1–42 aggregation in the absence of inhibitor) and ligand assays (effect of ligand on Aβ1–42 aggregation). For each experiment, a blank sample without Aβ1–42 was used to monitor the effect of the compounds in fluorescence. To study the inhibition of aggregation in the presence of Cu^2+, which is known to promote it, an intermediate stock solution of CuCl2 in phosphate buffer (240 µM) was prepared. Then, it was aliquoted to obtain a final concentration of 40 µM in the samples. All samples were incubated in a water bath for 24 h at 37 °C. Then, 180 µL of ThT (5 µM) in glycine-NaOH buffer (50 mM, pH = 8.5) is added to each solution and 200 µL of it is placed in a 96-well plate (BD Falcon) to be read with the fluorimeter. After 5 min of incubation with ThT, fluorescence was measured at 446 nm (ʎ excitation) and 485 nm (ʎ emission).

[2] = T = 25.0 ± 0.1 °C, I = 0.1 M KCl, 20% w/w DMSO/water

Row | SMILES | log β (FemHhLl), species (101) [1, 2] | log β (FemHhLl), species (102) [1, 2] | pM (Fe^3+), pM = −log [M] [1] | FeL in the Fe^3+/L system ([1]; pH ca. 2, species distribution) [%] | inhibition at 80 µM (Aβ1–42 peptide) [%] | log β (FemHhLl), species (1–22) [1, 2]
1 | COc1cc(/C=C/C(=O)NOCc2ccccc2OC)ccc1O [Compound 1a, (E)-3-(4-hydroxy-3-methoxyphenyl)-N-((2-methoxybenzyl)oxy)acrylamide] | 16.49(3) | 23.69(4) | 17.6 | 100 | 42.6 | 
2 | COc1cc(/C=C/C(=O)NOCc2cccc(Cl)c2)ccc1O [Compound 1d, (E)-N-((3-chlorobenzyl)oxy)-3-(4-hydroxy-3-methoxyphenyl)acrylamide] | 15.42(7) | 25.43(5) | 18.2 |  | 34.1 | 8.50(5)
